What is called IC50 is the point on the concentration scale where inhibition reaches its midpoint. In general, IC90 refers to the concentration at which the effect reaches the 90% level.

Structures are written as SMILES. Where only a bound is given, the exact number is not on record here.

The assay has as its system Plasmodium berghei. As to the kind of experiment: Luciferase/luciferin-expressing antifolate-resistant parasites were used to infect a culture of HepG2 cells that were pre-incubated with compounds. Infected hepatocytes emit light due to the luciferase reaction. Assay results are presented as the percent inhibition of light emission compared to control. […]. The assay is classed as functional. Particulars: sporozoite; for IC90: read-out: LUCIFERASE INFECTION ASSAY - IC90.

Where [1] appears, read: read-out: LUCIFERASE INFECTION ASSAY - IC50.

In the case of `CCn1nc(C)cc1-c1nnc(Cc2ncc([N+](=O)[O-])s2)n1CCCOC`, the IC90 turned out to be 5.21 µM. The concentration for half-maximal inhibition (IC50) (HEPG2TOX_HILL_SLOPE 9.43, HEPG2TOX_R_SQUARED 0.891, PBLUC_HILL_SLOPE 6.15, PBLUC_R_SQUARED 0.786, read-out: LUCIFERASE INFECTION ASSAY - IC50) stood at 3.65 µM.
As for `OCc1ccc(-c2cnc3ccc(NCc4ccc(F)cc4)nn23)cc1`, the IC90 came out at 1.24 µM. Also, where the note is “HEPG2TOX_HILL_SLOPE 0.86, HEPG2TOX_R_SQUARED 0.883, PBLUC_HILL_SLOPE 13, PBLUC_R_SQUARED 0.726, read-out: LUCIFERASE INFECTION ASSAY - IC50”, the IC50 was determined as 1.05 µM.
`CSc1sc(-c2nc(C(C)(C)C)cs2)c(C)c1C(C)=O`: the IC90 is above 10.1 µM. Also, under setting [1], the IC50 was above 10.1 µM.
Consider `CC(C)(Oc1ccc(Cl)cc1)C(=O)Nc1ccc(F)c(S(=O)(=O)N2CCOCC2)c1`, for which the IC90 was above 10 µM. Further, the IC50 under setting [1] is above 10 µM.
With `O=C1C=C/C(=N\Nc2ccc(F)cc2)c2cccnc21`, the IC90 is above 10 µM. Also, under “HEPG2TOX_HILL_SLOPE 7.02, HEPG2TOX_R_SQUARED 0.243, read-out: LUCIFERASE INFECTION ASSAY - IC50”, the IC50 was above 10 µM.
For the molecule `CC(C)c1cccc(Nc2nnc(C(O)c3cccc(N(C)C)c3)s2)c1` (stereo not drawn), the IC90 is above 10 µM. In addition, where the note is “HEPG2TOX_HILL_SLOPE 0.177, HEPG2TOX_R_SQUARED 0.124, PBLUC_HILL_SLOPE 3.19, PBLUC_R_SQUARED 0.0119, read-out: LUCIFERASE INFECTION ASSAY - IC50”, the half-maximal inhibitory concentration (IC50) was above 10 µM.
`O=[N+]([O-])c1ccccc1NC(=S)N/N=C/c1ccc(O)c(O)c1`: the IC90 worked out at 8.44 µM. For the same molecule, where the note is “FFLUC_HILL_SLOPE 1.09, FFLUC_R_SQUARED 0.362, HEPG2TOX_HILL_SLOPE 7.32, HEPG2TOX_R_SQUARED 0.0511, PBLUC_HILL_SLOPE 3.36, PBLUC_R_SQUARED 0.569, read-out: LUCIFERASE INFECTION ASSAY - IC50”, the IC50 was found to be 4.39 µM.
In the case of `Cc1ccc(-n2c(SCc3nc4ccccc4c(=O)o3)nnc2-c2ccccc2)cc1C`, the IC90 is above 10 µM. Also, under setting [1], the IC50 is above 10 µM.
`Cc1cc(C(=O)CN(C)Cc2nc(=O)c3ccccc3[nH]2)c(C)n1CC1COc2ccccc2O1` (stereo not drawn): the IC90 is above 10 µM. Moreover, the IC50 under setting [1] amounted to 0.371 µM.
In the same order, the values of `COc1cccc(-c2nccc3n[nH]c(-c4ccc(OC)cc4C)c23)c1` are above 10 µM and 4.5 µM.
In the same order, the values of `Cc1cc(C)c(C)c(S)c1C` are above 10 µM and above 10 µM.
Take `O=C(OCc1cn2cc(Cl)ccc2n1)c1cc([N+](=O)[O-])ccc1N1CCCC1`: the concentration for an effect of 90% (IC90) was determined as 1.23 µM. Moreover, under “HEPG2TOX_HILL_SLOPE 1.77, HEPG2TOX_R_SQUARED 0.925, PBLUC_HILL_SLOPE 9.51, PBLUC_R_SQUARED 0.622, read-out: LUCIFERASE INFECTION ASSAY - IC50”, the IC50 turned out to be 0.976 µM.
On to `CNC(=O)c1nnsc1[S+]([O-])c1ccc(Cl)cc1` (stereo not drawn), for which the 90% effect concentration (IC90) was above 10.9 µM. Also, the IC50 (FFLUC_HILL_SLOPE 1.33, FFLUC_R_SQUARED 0.248, HEPG2TOX_HILL_SLOPE 10.3, HEPG2TOX_R_SQUARED 0.738, read-out: LUCIFERASE INFECTION ASSAY - IC50) was above 10.9 µM.
Take `CN(C)C(=O)c1cccc(-c2cnc3c(NC=O)cc(-c4ccsc4)cn23)c1`: the IC90 is above 8.45 µM. For the same molecule, under setting [1], the IC50 is above 8.45 µM.
Regarding `CC(C)N(C(=O)COC(=O)C1=NNC(=O)CC1)C(C)C`, the IC90 is above 10 µM. In addition, under “FFLUC_HILL_SLOPE 15.7, FFLUC_R_SQUARED 0.158, read-out: LUCIFERASE INFECTION ASSAY - IC50”, the IC50 was above 10 µM.
Regarding `CCOC(=O)c1cnc2cc(Cl)c(F)cc2c1N1CCOCC1`, the 90% effect concentration (IC90) is above 9.74 µM. Further, under setting [1], the IC50 is above 9.74 µM.
As to `Nc1nc(Cl)cc(NCCc2ccccc2)n1`, the IC90 is above 13.3 µM. Under “HEPG2TOX_HILL_SLOPE 4.29, HEPG2TOX_R_SQUARED 0.965, PBLUC_HILL_SLOPE 3.15, PBLUC_R_SQUARED 0.0969, read-out: LUCIFERASE INFECTION ASSAY - IC50”, the IC50 was 10.4 µM.
In the case of `Cc1noc(C)c1C(=O)NNC(=O)c1ccc(Cl)cc1`, the IC90 is above 11.2 µM. Also, for the setting “PBLUC_HILL_SLOPE 16.2, PBLUC_R_SQUARED 0.359, read-out: LUCIFERASE INFECTION ASSAY - IC50”, the IC50 turned out to be 11 µM.
As for `CCCN(CC(=O)Nc1ccc(Cl)cc1Cl)C(=O)c1cn2ccccc2n1`, the 90% effect concentration (IC90) was above 10 µM. Besides, the IC50 (HEPG2TOX_HILL_SLOPE 2.93, HEPG2TOX_R_SQUARED 0.207, PBLUC_HILL_SLOPE 1.46, PBLUC_R_SQUARED 0.174, read-out: LUCIFERASE INFECTION ASSAY - IC50) was above 10 µM.
Take `Cc1cc2nc(NC3=NCN(Cc4cccnc4)CN3)nc(C)c2cc1C`: the IC90 is above 9.13 µM. In addition, the IC50 under setting [1] is above 9.13 µM.
For the molecule `O=C(Nc1ccccc1)Nc1ccc2cc(C(=O)c3ccccc3O)cnc2c1`, the IC90 is 4.81 µM. In addition, the IC50 (PBLUC_HILL_SLOPE 1.23, 8.91, PBLUC_R_SQUARED 0.971, 0.189, read-out: LUCIFERASE INFECTION ASSAY - IC50) worked out at 3.52 µM.
On to `O=C(Nc1nc(-c2c[nH]c3ccccc23)cs1)c1coc(Br)c1`, for which the IC90 was above 10 µM. For the same molecule, the IC50 under setting [1] is above 10 µM.
Consider `COc1ccc(C(CNC(=O)c2cc3c(C)nn(-c4ccc(Cl)cc4)c3s2)N(C)C)cc1` (stereo not drawn), for which the IC90 was found to be 4.14 µM. For the same molecule, the IC50 (PBLUC_HILL_SLOPE 12.4, PBLUC_R_SQUARED 0.574, read-out: LUCIFERASE INFECTION ASSAY - IC50) was found to be 3.47 µM.
As for `Cc1[nH]c2ccccc2c1/C=N/n1c(-c2ccc(Cl)cc2Cl)cs/c1=N\CC1CCCO1` (stereo not drawn), the IC90 is 6.77 µM. In addition, under “FFLUC_HILL_SLOPE 15.4, FFLUC_R_SQUARED 0.637, HEPG2TOX_HILL_SLOPE 0.309, HEPG2TOX_R_SQUARED 0.658, PBLUC_HILL_SLOPE 1.1, PBLUC_R_SQUARED 0.559, read-out: LUCIFERASE INFECTION ASSAY - IC50”, the IC50 was 0.923 µM.
Consider `COc1cc(/C=C/C(=O)Nc2ccc3c(c2)nc2n3CCCCC2)ccc1OS(=O)(=O)c1ccc(C)cc1`, for which the IC90 was 8.3 µM. For the same molecule, the IC50 (HEPG2TOX_HILL_SLOPE 1.59, HEPG2TOX_R_SQUARED 0.591, PBLUC_HILL_SLOPE 1.96, PBLUC_R_SQUARED 0.277, read-out: LUCIFERASE INFECTION ASSAY - IC50) is 2.71 µM.
On to `C=CCn1c(C)cc(C(=O)CSc2ccc(NC(C)=O)cc2)c1C`, for which the IC90 came to 2.85 µM. The IC50 (PBLUC_HILL_SLOPE 1.26, 1.79, PBLUC_R_SQUARED 0.402, 0.760, read-out: LUCIFERASE INFECTION ASSAY - IC50) came out at 1.34 µM.
As to `CCC(C)NC(=O)c1c(NC(=O)C(C)Oc2ccccc2)nc2ccc(C)cn12` (stereo not drawn), the IC90 is above 8.37 µM. Besides, the IC50 (PBLUC_HILL_SLOPE 12.7, PBLUC_R_SQUARED 0.125, read-out: LUCIFERASE INFECTION ASSAY - IC50) was 7.88 µM.
Turning to `O=C(/C=C/c1cc([N+](=O)[O-])ccc1OC(F)F)N1CCN(C(c2ccccc2)c2ccccc2)CC1`, the IC90 is above 10 µM. The IC50 under setting [1] is above 10 µM.
`Cc1cc(/C=C2\SC(NC3CCCCC3)=NC2=O)c(C)n1-c1ccc(Cl)c(C(F)(F)F)c1`: the IC90 was 9.71 µM. Also, the 50% inhibitory concentration (IC50) (FFLUC_HILL_SLOPE 17.5, FFLUC_R_SQUARED 0.757, PBLUC_HILL_SLOPE 2.43, PBLUC_R_SQUARED 0.441, read-out: LUCIFERASE INFECTION ASSAY - IC50) was 3.93 µM.
For the molecule `Cc1nn(-c2ccccc2)c2sc(C(=O)N3c4ccccc4CC3C)cc12` (stereo not drawn), the IC90 is above 10 µM. For the same molecule, the IC50 under setting [1] was above 10 µM.
With `Cc1nn(C)c2nc(C3CC3)cc(C(=O)Nc3ccccc3C(=O)NC(C)c3ccccc3)c12` (stereo not drawn), the concentration for an effect of 90% (IC90) was above 10 µM. Besides, the IC50 under setting [1] amounted to 8.82 µM.
Regarding `Cc1ccc2c(Cl)cc(Cl)c(OCC(=O)N(C(C)C)C(C)C)c2n1`, the IC90 is above 10 µM. In addition, the IC50 (PBLUC_HILL_SLOPE 0.984, PBLUC_R_SQUARED 0.0595, read-out: LUCIFERASE INFECTION ASSAY - IC50) was above 10 µM.
As for `CN1CCN(c2nc(-c3c(-c4ccc(F)cc4)[nH]c4ccccc34)cs2)CC1`, the IC90 is above 10 µM. Also, the IC50 under setting [1] is above 10 µM.
Turning to `CCN(CC)C(=O)c1ccc(Nc2nc(C(F)(F)F)nc3ccccc23)cc1`, the IC90 was above 10 µM. Also, the IC50 (HEPG2TOX_HILL_SLOPE 3.04, HEPG2TOX_R_SQUARED 0.82, PBLUC_HILL_SLOPE 1.45, PBLUC_R_SQUARED 0.471, read-out: LUCIFERASE INFECTION ASSAY - IC50) came to 5.81 µM.
Take `COc1ccc(-c2nc3ccc(NC(=O)Nc4ccc(OC)c(OC)c4)cn3n2)cc1`: the IC90 is above 10 µM. Moreover, the IC50 under setting [1] was above 10 µM.
Turning to `Cc1cc(Cl)ccc1OCc1nnc(-c2ccccn2)[nH]1`, the IC90 worked out at 3.63 µM. Moreover, the IC50 (HEPG2TOX_HILL_SLOPE 11.7, HEPG2TOX_R_SQUARED 0.29, PBLUC_HILL_SLOPE 34.3, PBLUC_R_SQUARED 0.372, read-out: LUCIFERASE INFECTION ASSAY - IC50) is 3.41 µM.
For the molecule `CCCc1ccc(-c2nc(-c3ccccc3)no2)cc1`, the concentration for an effect of 90% (IC90) came out at 0.0999 µM. Also, the IC50 (FFLUC_HILL_SLOPE 35.1, FFLUC_R_SQUARED 0.438, PBLUC_HILL_SLOPE 1.27, PBLUC_R_SQUARED 0.957, read-out: LUCIFERASE INFECTION ASSAY - IC50) amounted to 0.0177 µM.
As to `N=C1C(c2nc3ccccc3[nH]2)C(=O)CN1NC(=O)Cn1nnc(-c2cccc(C(F)(F)F)c2)n1` (stereo not drawn), the IC90 is above 10 µM. The IC50 under setting [1] was above 10 µM.
Take `COc1nc2c(c(-c3c(F)cccc3Cl)c1C#N)Cc1ccccc1-2`: the IC90 is above 9.41 µM. For the setting “HEPG2TOX_HILL_SLOPE 6.94, HEPG2TOX_R_SQUARED 0.218, PBLUC_HILL_SLOPE 33.2, PBLUC_R_SQUARED 0.233, read-out: LUCIFERASE INFECTION ASSAY - IC50”, the IC50 came out at 9 µM.

Source of the values: ChEMBL document CHEMBL4483862, “Open-source discovery of chemical leads for next-generation chemoprotective antimalarials” (2018).
